SMILES strings stand for the structures.

This note sets out measurements from PMC7697888, “Comprehensive Set of Tertiary Complex Structures and Palmitic Acid Binding Provide Molecular Insights into Ligand Design for RXR Isoforms” (International Journal of Molecular Sciences, 2020).

One experiment concerns RXR. The experiment in a line: Gal4 hybrid reporter gene assays, competition with bexarotene / antagonist UVI3003 (isoform not specified). Conditions: bexarotene 0.1 µM or 1 µM; for effect on bexarotene-induced RXR activation, low concentration: fatty acid 10 µM; for effect on bexarotene-induced RXR activation, higher concentration: fatty acid 100 µM, not statistically significant for all fatty acids on all isoforms. In kind it is cell-based, human. The protocol:
(§1) The Gal4 hybrid reporter gene assays for RXRα, RXRβ and RXRγ were performed as described previously using the Gal4-fusion receptor plasmids pFA-CMV-hRXRα-LBD (NR2B1, UniProt entry: P19793, aa 225–462), pFA-CMV-hRXRβ-LBD (NR2B2, UniProt entry: P28702-1, aa 294–533) and pFA-CMV-hRXRγ-LBD (NR2B3, UniProt entry: P48443-1, aa 229–463), which code for the hinge region and LBD of the canonical RXR isoform. pFR-Luc (Stratagene, San Diego, CA, USA) as the reporter plasmid and pRL-SV40 (Promega, Madison, WI, USA) as the internal control were used. HEK293T cells were grown in DMEM high-glucose medium (supplemented with 10% fetal calf serum (FCS), sodium pyruvate (1 mM), penicillin (100 U/mL) and streptomycin (100 μg/mL)) at 37 °C and 5% CO2, and seeded in 96-well plates (3.0 × 10^4 cells/well) on the day before transfection. Right before transfection, medium was changed to Opti-MEM without supplements and cells were transiently transfected using the Lipofectamine LTX reagent (Invitrogen, Carlsbad, CA, USA) according to the manufacturer’s protocol with pFR-Luc (Stratagene), pRL-SV40 (Promega) and the respective pFA-CMV-hRXR-LBD clone. After 5 h of incubation, medium was changed to Opti-MEM (supplemented with penicillin (100 U/mL) and streptomycin (100 μg/mL)) additionally containing 0.1% DMSO and the respective test compounds or 0.1% DMSO alone as the untreated control. After overnight incubation (12–14 h), cells were assayed for luciferase activity using the Dual-Glo luciferase assay system (Promega) according to the manufacturer’s protocol on a Tecan Spark M10 luminometer (Tecan Deutschland GmbH, Crailsheim, Germany). Each sample was tested in at least three biologically independent repeats in duplicates. Data were normalized for transfection efficiency and cell growth by division of firefly luciferase data by Renilla luciferase data and multiplying by 1000 to obtain relative light units (RLUs). Fold activation denotes the mean RLU of test compounds at a respective concentration divided by the mean RLU of untreated control. […]
(In general: A reporter such as luciferase makes a cellular process visible.)

Another experiment addresses T1, RXRα (Homo sapiens, UniProt P19793).
T1 construct: pFA-CMV-hRXRα-LBD (NR2B1, UniProt entry: P19793, aa 225–462); expressed in transfected cells; host or cells: HEK293T
T1 sequence (P19793 225-462): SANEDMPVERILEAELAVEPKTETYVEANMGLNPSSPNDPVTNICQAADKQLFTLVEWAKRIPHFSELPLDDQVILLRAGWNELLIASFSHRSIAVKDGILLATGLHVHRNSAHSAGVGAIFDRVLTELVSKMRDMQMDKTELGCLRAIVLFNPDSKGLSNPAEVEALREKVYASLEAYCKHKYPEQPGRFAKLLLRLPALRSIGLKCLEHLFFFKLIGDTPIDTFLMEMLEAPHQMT
The experiment in a line: Gal4 hybrid reporter gene assay RXRα. Conditions: HEK293T; at 100 µM concentrations and above. In kind it is cell-based. The method, then:
as §1

For `CCCCCCCCCCCCCCCCCC(=O)O` [SA, stearic acid], in the experiment on RXR, the “effect on bexarotene-induced RXR activation, low concentration” value (shortened to “effect … low concentration”) is recorded as “tendency to further promote RXR activation” and the “effect on bexarotene-induced RXR activation, higher concentration” value (“effect … higher concentration” below) is recorded as “weak competitive behavior”. Besides, the “RXRα activation in Gal4 hybrid reporter gene assay” value (“RXRα activation” for short) on RXRα is on record as “activated”.

For `CCCCCCCCCCCCCC(=O)O` [MA, myristic acid], in the experiment on RXR, the “effect … low concentration” value was “tendency to further promote RXR activation” and the “effect … higher concentration” value was “weak competitive behavior”. For the same compound, on RXRα, the “RXRα activation” value was “activated”.

For `CCCCCCCCCCCCCCCC(=O)O` [PA, palmitic acid], in the experiment with RXR, the “effect … low concentration” value is “tendency to further promote RXR activation” and the “effect … higher concentration” value is on record as “weak competitive behavior”. Besides, the “RXRα activation” value at RXRα was “activated”.
